Data taken from the kinase profiling compilation of Christmann-Franck et al. (2016).

Columns and labels:
Experiment in all cases: radiometric filter-binding kinase assay, Kinase HotSpot
Settings in all cases: compound 0.5 µM; ATP 10 µM
CSNK1G1 (human) = CSNK1G1 (human) (UniProt Q9HCP0)
MAPK13 (human) = MAPK13 (human) (UniProt O15264)
TAOK2 (human) = TAOK2 (human) (UniProt Q9UL54)
DDR2 (human) = DDR2 (human) (UniProt Q16832)
MAPK12 (human) = MAPK12 (human) (UniProt P53778)
JAK2 JH1 JH2 (human) = JAK2 JH1 JH2 (human) (UniProt O60674)
MAPKAPK3 (human) = MAPKAPK3 (human) (UniProt Q16644)
DAPK1 (human) = DAPK1 (human) (UniProt P53355)
PTK2B (human) = PTK2B (human) (UniProt Q14289)
GRK6 (human) = GRK6 (human) (UniProt P43250)
LIMK1 (human) = LIMK1 (human) (UniProt P53667)
MARK2 (human) = MARK2 (human) (UniProt Q7KZI7)
TAOK3 (human) = TAOK3 (human) (UniProt Q9H2K8)
MUSK (human) = MUSK (human) (UniProt O15146)
WEE1 (human) = WEE1 (human) (UniProt P30291)
CSNK1D (human) = CSNK1D (human) (UniProt P48730)
HCK (human) = HCK (human) (UniProt P08631)
ACVRL1 (human) = ACVRL1 (human) (UniProt P37023)
GSK3B (human) = GSK3B (human) (UniProt P49841)
AXL (human) = AXL (human) (UniProt P30530)
IRAK1 (human) = IRAK1 (human) (UniProt P51617)
CHUK (human) = CHUK (human) (UniProt O15111)
NEK4 (human) = NEK4 (human) (UniProt P51957)
MERTK (human) = MERTK (human) (UniProt Q12866)
CDK9 CCNK (human) = CDK9 CCNK (human) (UniProt O75909+P50750)
RPS6KA4 KD2 (human) = RPS6KA4 KD2 (human) (UniProt O75676)
NTRK2 (human) = NTRK2 (human) (UniProt Q16620)
DYRK2 (human) = DYRK2 (human) (UniProt Q92630)
TSSK1B (human) = TSSK1B (human) (UniProt Q9BXA7)
CSNK2A2 (human) = CSNK2A2 (human) (UniProt P19784)
OXSR1 (human) = OXSR1 (human) (UniProt O95747)
PRKG2 (human) = PRKG2 (human) (UniProt Q13237)
WNK3 (human) = WNK3 (human) (UniProt Q9BYP7)
MARK3 (human) = MARK3 (human) (UniProt P27448)
NTRK3 (human) = NTRK3 (human) (UniProt Q16288)
PHKG2 (human) = PHKG2 (human) (UniProt P15735)
AKT3 (human) = AKT3 (human) (UniProt Q9Y243)
FYN (human) = FYN (human) (UniProt P06241)
DSTYK (human) = DSTYK (human) (UniProt Q6XUX3)
DYRK1A (human) = DYRK1A (human) (UniProt Q13627)
CAMK4 (human) = CAMK4 (human) (UniProt Q16566)
STK33 (human) = STK33 (human) (UniProt Q9BYT3)
Sequence of STK33 (human) (Q9BYT3 whole entry, looked up): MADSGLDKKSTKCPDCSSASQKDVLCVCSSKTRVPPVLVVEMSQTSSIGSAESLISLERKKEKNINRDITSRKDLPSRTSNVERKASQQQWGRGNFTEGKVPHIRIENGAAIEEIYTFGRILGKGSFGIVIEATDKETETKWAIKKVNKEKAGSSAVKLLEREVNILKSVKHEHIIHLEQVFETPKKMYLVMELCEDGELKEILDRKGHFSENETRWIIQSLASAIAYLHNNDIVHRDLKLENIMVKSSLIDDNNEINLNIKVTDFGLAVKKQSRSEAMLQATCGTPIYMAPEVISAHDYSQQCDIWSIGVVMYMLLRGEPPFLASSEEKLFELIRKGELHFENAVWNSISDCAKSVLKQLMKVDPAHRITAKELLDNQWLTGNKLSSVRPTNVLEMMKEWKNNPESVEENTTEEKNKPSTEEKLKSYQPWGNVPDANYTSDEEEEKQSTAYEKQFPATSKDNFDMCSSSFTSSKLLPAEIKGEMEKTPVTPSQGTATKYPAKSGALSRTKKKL

Sequence of WNK3 (human) (Q9BYP7 whole entry, looked up): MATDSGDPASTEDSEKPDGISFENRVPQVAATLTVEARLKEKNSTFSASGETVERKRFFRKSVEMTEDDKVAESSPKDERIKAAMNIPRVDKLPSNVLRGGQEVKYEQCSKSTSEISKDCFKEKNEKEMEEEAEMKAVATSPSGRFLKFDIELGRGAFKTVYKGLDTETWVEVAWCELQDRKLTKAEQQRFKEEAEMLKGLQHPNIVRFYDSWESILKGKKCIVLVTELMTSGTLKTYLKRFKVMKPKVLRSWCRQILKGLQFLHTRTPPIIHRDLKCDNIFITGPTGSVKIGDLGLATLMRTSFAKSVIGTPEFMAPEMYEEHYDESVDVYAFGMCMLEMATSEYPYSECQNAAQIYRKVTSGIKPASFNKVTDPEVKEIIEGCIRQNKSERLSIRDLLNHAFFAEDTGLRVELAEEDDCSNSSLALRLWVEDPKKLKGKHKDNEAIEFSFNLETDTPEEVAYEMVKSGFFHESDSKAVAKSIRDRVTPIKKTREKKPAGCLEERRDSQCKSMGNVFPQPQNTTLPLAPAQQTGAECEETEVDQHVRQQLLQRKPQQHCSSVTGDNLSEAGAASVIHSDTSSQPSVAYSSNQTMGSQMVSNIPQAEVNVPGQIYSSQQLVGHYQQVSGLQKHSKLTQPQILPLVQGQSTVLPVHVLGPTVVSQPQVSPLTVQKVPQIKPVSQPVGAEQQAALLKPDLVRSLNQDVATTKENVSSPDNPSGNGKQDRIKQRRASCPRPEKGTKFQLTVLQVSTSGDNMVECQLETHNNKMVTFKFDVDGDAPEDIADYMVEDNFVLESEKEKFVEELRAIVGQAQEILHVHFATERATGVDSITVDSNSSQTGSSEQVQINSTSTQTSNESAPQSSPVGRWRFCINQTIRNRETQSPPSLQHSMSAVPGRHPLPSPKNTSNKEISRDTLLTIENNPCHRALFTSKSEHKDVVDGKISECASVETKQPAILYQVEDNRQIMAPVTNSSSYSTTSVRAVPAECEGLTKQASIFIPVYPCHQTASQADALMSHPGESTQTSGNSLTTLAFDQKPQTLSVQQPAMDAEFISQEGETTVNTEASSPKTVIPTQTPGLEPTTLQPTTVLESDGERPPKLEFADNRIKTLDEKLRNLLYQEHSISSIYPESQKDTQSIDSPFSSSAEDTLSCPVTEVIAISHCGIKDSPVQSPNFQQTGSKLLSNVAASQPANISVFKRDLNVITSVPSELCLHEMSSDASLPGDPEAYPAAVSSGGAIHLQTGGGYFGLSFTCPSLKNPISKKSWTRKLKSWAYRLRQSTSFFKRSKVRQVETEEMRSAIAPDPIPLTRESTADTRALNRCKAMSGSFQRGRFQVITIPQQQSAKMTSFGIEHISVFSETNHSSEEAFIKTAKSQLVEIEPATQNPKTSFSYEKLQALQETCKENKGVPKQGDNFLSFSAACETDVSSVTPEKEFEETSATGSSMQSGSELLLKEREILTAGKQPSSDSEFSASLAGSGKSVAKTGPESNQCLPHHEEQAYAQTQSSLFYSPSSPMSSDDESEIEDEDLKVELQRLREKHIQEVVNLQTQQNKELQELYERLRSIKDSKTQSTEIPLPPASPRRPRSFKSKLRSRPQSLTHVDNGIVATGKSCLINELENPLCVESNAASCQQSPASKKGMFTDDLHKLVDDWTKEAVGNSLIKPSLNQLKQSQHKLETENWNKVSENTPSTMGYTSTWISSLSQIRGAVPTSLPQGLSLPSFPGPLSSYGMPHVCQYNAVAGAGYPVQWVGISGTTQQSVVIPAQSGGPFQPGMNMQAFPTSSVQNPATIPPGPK
Sequence of AXL (human) (P30530 whole entry, looked up): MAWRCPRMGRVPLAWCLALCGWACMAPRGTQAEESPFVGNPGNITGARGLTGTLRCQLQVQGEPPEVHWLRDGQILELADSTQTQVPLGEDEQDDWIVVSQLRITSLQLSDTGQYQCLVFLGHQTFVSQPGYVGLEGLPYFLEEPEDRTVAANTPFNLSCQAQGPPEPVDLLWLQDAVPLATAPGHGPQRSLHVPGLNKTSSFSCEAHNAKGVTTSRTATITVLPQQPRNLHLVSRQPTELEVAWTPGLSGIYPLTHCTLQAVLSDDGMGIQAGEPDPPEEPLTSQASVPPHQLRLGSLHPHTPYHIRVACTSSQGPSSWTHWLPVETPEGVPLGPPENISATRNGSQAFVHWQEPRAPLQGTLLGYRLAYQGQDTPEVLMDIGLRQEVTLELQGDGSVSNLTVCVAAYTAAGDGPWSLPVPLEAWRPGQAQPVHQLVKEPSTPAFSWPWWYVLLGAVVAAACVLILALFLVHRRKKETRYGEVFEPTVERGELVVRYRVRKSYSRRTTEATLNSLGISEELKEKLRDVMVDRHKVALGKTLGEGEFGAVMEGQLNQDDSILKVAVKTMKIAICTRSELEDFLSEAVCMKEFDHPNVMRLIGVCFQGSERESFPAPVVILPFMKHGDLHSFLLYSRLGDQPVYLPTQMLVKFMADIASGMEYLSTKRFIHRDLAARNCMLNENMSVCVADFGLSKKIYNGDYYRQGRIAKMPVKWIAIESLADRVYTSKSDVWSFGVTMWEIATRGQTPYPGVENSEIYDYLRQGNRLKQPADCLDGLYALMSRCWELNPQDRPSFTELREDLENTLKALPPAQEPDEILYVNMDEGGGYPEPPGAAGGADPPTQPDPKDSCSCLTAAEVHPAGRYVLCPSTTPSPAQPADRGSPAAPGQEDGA
Sequence of CSNK2A2 (human) (P19784 whole entry, looked up): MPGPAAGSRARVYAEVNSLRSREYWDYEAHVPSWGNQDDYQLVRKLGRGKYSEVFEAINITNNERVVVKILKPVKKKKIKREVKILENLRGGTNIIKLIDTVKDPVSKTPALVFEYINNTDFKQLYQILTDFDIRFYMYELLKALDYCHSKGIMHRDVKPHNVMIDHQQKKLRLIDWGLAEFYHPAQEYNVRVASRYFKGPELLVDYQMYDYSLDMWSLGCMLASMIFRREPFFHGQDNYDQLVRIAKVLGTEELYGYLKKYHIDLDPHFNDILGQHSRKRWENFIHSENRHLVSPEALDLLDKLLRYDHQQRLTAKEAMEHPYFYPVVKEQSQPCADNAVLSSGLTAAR
Sequence of OXSR1 (human) (O95747 whole entry, looked up): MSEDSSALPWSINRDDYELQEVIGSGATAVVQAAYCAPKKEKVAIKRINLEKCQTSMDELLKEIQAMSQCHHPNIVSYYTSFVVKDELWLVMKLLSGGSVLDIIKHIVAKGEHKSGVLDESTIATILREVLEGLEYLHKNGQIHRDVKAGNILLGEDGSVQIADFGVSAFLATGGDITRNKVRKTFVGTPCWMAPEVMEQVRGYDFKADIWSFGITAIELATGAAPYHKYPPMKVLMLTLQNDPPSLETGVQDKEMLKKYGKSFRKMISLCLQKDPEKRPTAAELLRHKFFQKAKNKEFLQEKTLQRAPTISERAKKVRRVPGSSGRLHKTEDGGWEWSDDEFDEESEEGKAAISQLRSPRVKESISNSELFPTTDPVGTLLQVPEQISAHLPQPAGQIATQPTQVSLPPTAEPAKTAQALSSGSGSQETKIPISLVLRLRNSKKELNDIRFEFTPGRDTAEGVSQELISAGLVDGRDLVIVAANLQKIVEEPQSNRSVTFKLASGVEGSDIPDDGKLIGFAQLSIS
Sequence of PRKG2 (human) (Q13237 whole entry, looked up): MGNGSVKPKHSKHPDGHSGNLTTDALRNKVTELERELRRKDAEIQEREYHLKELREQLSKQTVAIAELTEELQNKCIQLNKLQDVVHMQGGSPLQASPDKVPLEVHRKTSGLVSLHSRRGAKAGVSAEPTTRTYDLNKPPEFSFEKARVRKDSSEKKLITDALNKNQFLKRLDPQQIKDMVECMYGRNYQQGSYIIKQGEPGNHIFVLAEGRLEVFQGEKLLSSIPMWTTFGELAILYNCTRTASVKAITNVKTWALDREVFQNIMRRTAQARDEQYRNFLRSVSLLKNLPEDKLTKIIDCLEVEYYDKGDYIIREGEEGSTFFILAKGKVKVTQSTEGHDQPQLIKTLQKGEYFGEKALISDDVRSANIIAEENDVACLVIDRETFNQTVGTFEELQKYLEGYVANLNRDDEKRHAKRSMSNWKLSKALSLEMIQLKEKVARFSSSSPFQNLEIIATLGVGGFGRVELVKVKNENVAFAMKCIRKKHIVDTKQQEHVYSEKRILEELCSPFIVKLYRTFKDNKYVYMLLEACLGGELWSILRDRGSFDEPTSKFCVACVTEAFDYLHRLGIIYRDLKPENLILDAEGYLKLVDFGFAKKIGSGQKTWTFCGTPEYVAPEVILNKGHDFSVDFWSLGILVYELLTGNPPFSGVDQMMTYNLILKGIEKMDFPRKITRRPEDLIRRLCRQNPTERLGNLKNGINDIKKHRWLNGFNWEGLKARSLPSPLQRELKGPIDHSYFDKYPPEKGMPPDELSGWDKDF

CCCCc1c(-c2ccc(OC)cc2)[nH]c2nccnc12
residual activity (CSNK1G1 (human)): 93.3%
residual activity (MAPK13 (human)): 99.1%
residual activity (TAOK2 (human)): 90.1%
residual activity (DDR2 (human)): 94.3%
residual activity (MAPK12 (human)): 102%
residual activity (JAK2 JH1 JH2 (human)): 77.9%
residual activity (MAPKAPK3 (human)): 98.6%
residual activity (DAPK1 (human)): 90.6%
residual activity (PTK2B (human)): 100%
residual activity (GRK6 (human)): 88.3%
residual activity (LIMK1 (human)): 65.3%
residual activity (MARK2 (human)): 83.1%
residual activity (TAOK3 (human)): 103%
residual activity (MUSK (human)): 95.4%
residual activity (WEE1 (human)): 85.9%
residual activity (CSNK1D (human)): 94.7%
residual activity (HCK (human)): 94.4%
residual activity (ACVRL1 (human)): 77%
residual activity (GSK3B (human)): 70.2%
residual activity (AXL (human)): 110%
residual activity (IRAK1 (human)): 64.3%
residual activity (CHUK (human)): 97.3%
residual activity (NEK4 (human)): 81.3%
residual activity (MERTK (human)): 92.6%
residual activity (CDK9 CCNK (human)): 56.9%
residual activity (RPS6KA4 KD2 (human)): 89.4%
residual activity (NTRK2 (human)): 73.4%
residual activity (DYRK2 (human)): 92.9%
residual activity (TSSK1B (human)): 65.3%
residual activity (CSNK2A2 (human)): 94.1%
residual activity (OXSR1 (human)): 102%
residual activity (PRKG2 (human)): 93.9%
residual activity (WNK3 (human)): 88.4%
residual activity (MARK3 (human)): 91.2%
residual activity (NTRK3 (human)): 84.4%
residual activity (PHKG2 (human)): 106%
residual activity (AKT3 (human)): 102%
residual activity (FYN (human)): 61.3%
residual activity (DSTYK (human)): 97.6%
residual activity (DYRK1A (human)): 102%
residual activity (CAMK4 (human)): 97.6%
residual activity (STK33 (human)): 84.6%

CS(=O)(=O)CCNCc1ccc(-c2ccc3ncnc(Nc4ccc(OCc5cccc(F)c5)c(Cl)c4)c3c2)o1
residual activity (CSNK1G1 (human)): 105%
residual activity (MAPK13 (human)): 91.1%
residual activity (TAOK2 (human)): 105%
residual activity (DDR2 (human)): 107%
residual activity (MAPK12 (human)): 95%
residual activity (JAK2 JH1 JH2 (human)): 101%
residual activity (MAPKAPK3 (human)): 103%
residual activity (DAPK1 (human)): 107%
residual activity (PTK2B (human)): 101%
residual activity (GRK6 (human)): 101%
residual activity (LIMK1 (human)): 95.2%
residual activity (MARK2 (human)): 137%
residual activity (TAOK3 (human)): 101%
residual activity (MUSK (human)): 96.5%
residual activity (WEE1 (human)): 97.5%
residual activity (CSNK1D (human)): 91.2%
residual activity (HCK (human)): 86.5%
residual activity (ACVRL1 (human)): 105%
residual activity (GSK3B (human)): 103%
residual activity (AXL (human)): 96.2%
residual activity (IRAK1 (human)): 98.8%
residual activity (CHUK (human)): 99.5%
residual activity (NEK4 (human)): 98.1%
residual activity (MERTK (human)): 95.4%
residual activity (CDK9 CCNK (human)): 103%
residual activity (RPS6KA4 KD2 (human)): 93.4%
residual activity (NTRK2 (human)): 98.8%
residual activity (DYRK2 (human)): 102%
residual activity (TSSK1B (human)): 79%
residual activity (CSNK2A2 (human)): 101%
residual activity (OXSR1 (human)): 105%
residual activity (PRKG2 (human)): 107%
residual activity (WNK3 (human)): 104%
residual activity (MARK3 (human)): 95.9%
residual activity (NTRK3 (human)): 103%
residual activity (PHKG2 (human)): 99.5%
residual activity (AKT3 (human)): 83.5%
residual activity (FYN (human)): 99.4%
residual activity (DSTYK (human)): 108%
residual activity (DYRK1A (human)): 101%
residual activity (CAMK4 (human)): 107%
residual activity (STK33 (human)): 94.7%

c1ccc2c(-c3ccncc3)c[nH]c2c1
residual activity (CSNK1G1 (human)): 79.2%
residual activity (MAPK13 (human)): 123%
residual activity (TAOK2 (human)): 92.1%
residual activity (DDR2 (human)): 92.6%
residual activity (MAPK12 (human)): 104%
residual activity (JAK2 JH1 JH2 (human)): 93.8%
residual activity (MAPKAPK3 (human)): 97.8%
residual activity (DAPK1 (human)): 97.7%
residual activity (PTK2B (human)): 95.3%
residual activity (GRK6 (human)): 103%
residual activity (LIMK1 (human)): 92%
residual activity (MARK2 (human)): 102%
residual activity (TAOK3 (human)): 103%
residual activity (MUSK (human)): 78.9%
residual activity (WEE1 (human)): 89.3%
residual activity (CSNK1D (human)): 105%
residual activity (HCK (human)): 99.5%
residual activity (ACVRL1 (human)): 100%
residual activity (GSK3B (human)): 104%
residual activity (AXL (human)): 99.8%
residual activity (IRAK1 (human)): 127%
residual activity (CHUK (human)): 107%
residual activity (NEK4 (human)): 95.4%
residual activity (MERTK (human)): 93%
residual activity (CDK9 CCNK (human)): 91.2%
residual activity (RPS6KA4 KD2 (human)): 91%
residual activity (NTRK2 (human)): 107%
residual activity (DYRK2 (human)): 77.5%
residual activity (TSSK1B (human)): 103%
residual activity (CSNK2A2 (human)): 94.9%
residual activity (OXSR1 (human)): 97.2%
residual activity (PRKG2 (human)): 38.3%
residual activity (WNK3 (human)): 100%
residual activity (MARK3 (human)): 98%
residual activity (NTRK3 (human)): 100%
residual activity (PHKG2 (human)): 101%
residual activity (AKT3 (human)): 101%
residual activity (FYN (human)): 98.7%
residual activity (DSTYK (human)): 95.9%
residual activity (DYRK1A (human)): 77.6%
residual activity (CAMK4 (human)): 101%
residual activity (STK33 (human)): 97.3%

Ic1cccc(CSc2nnc(-c3ccncc3)o2)c1
residual activity (CSNK1G1 (human)): 91.7%
residual activity (MAPK13 (human)): 93.8%
residual activity (TAOK2 (human)): 105%
residual activity (DDR2 (human)): 103%
residual activity (MAPK12 (human)): 93%
residual activity (JAK2 JH1 JH2 (human)): 107%
residual activity (MAPKAPK3 (human)): 109%
residual activity (DAPK1 (human)): 90.3%
residual activity (PTK2B (human)): 92.1%
residual activity (GRK6 (human)): 100%
residual activity (LIMK1 (human)): 85.8%
residual activity (MARK2 (human)): 116%
residual activity (TAOK3 (human)): 103%
residual activity (MUSK (human)): 94.1%
residual activity (WEE1 (human)): 97.2%
residual activity (CSNK1D (human)): 103%
residual activity (HCK (human)): 104%
residual activity (ACVRL1 (human)): 103%
residual activity (GSK3B (human)): 59.8%
residual activity (AXL (human)): 99.2%
residual activity (IRAK1 (human)): 121%
residual activity (CHUK (human)): 96.5%
residual activity (NEK4 (human)): 93.7%
residual activity (MERTK (human)): 96.4%
residual activity (CDK9 CCNK (human)): 105%
residual activity (RPS6KA4 KD2 (human)): 92.1%
residual activity (NTRK2 (human)): 91.4%
residual activity (DYRK2 (human)): 96.8%
residual activity (TSSK1B (human)): 97.6%
residual activity (CSNK2A2 (human)): 81%
residual activity (OXSR1 (human)): 105%
residual activity (PRKG2 (human)): 105%
residual activity (WNK3 (human)): 101%
residual activity (MARK3 (human)): 124%
residual activity (NTRK3 (human)): 104%
residual activity (PHKG2 (human)): 105%
residual activity (AKT3 (human)): 90.7%
residual activity (FYN (human)): 102%
residual activity (DSTYK (human)): 94.8%
residual activity (DYRK1A (human)): 96.4%
residual activity (CAMK4 (human)): 91.6%
residual activity (STK33 (human)): 111%
